Columns and labels:
[1] = Experimental: (§1) Pharmacokinetic compartment modelling was used on these novel substances, which had been derived from A. vasica and C. procera. The half-life was determined by the regions under plasma concentration, while the peak plasma concentration as well as timing acquired immediately from the dataset obtained in this investigation. Medicinal phyto-constituents were incorporated to the compartment model and an automatic calculating software tool was coupled with win-Nonlin ® Software to these bioactive chemicals.
Selected compounds were administered using a one-compartment oral dosage model, extract the one-compartment model parameters, the non-compartment model Parameters are necessary. The equations for non-compartment and one-compartment variables are given below respectively. • (1) w = (AUC, T max, T1/2) • (2) β = (ka, ke, V). • (3) β = (ke, V) • (4) CL po = V × Ke
If only oral clearance is required, CL po should be used instead of AUC. When it comes to IV dosage, however, just w = (AUC, T1/2) is required to claim the single dozes changes in (3).
Plasma concertation either orally or via an injection of selected compounds The natural antibiotic compounds by being taken into cells and either bacterial changes and it formed a tragedy to cells as expressed complete changes used in the formation of ATP in cells. The pharmacokinetic description of antibiotic compounds are shown in below equation and represented mathematically by equations (1), (2), (3), (4).(1) dSdt=rS,end+rS,ex-rS,elim (2) rS,end=f(t,S,I,G,E,F,A,KS,end) (3) rS,ex=g(t,MS) (4) rS,elim=h(t,S,I,E,KS,elim)

[2] = assay type: in vitro ADME
Experimental: as §1, with “[…].” for “vasica and C.”

Compound	AUC, area under plasma concentration (Mean) [1]	T max (Mean) [1]	Half life (Mean) [1]	Absorption capacity (Mean) [2]
CCCCC/C=C\C/C=C\CCCCCCCC(=O)O[C@H]1CC[C@@]2(C)C(=CC[C@H]3[C@@H]4CC[C@H]([C@H](C)CC[C@@H](CC)C(C)C)[C@@]4(C)CC[C@@H]32)C1 [B-Sitosteryl linoleate]	0.1	–	–	–
Myristyl diglucoside	–	0.2	–	–
S-allylcysteine acid	0.1	–	2.1	2.1

Reference: PMC9283668, “Natural and commercial antibiotic comparison with drugs modeling cell integrity cell stability of Bio-Kinetics changes under morphological topographies cells with lower toxicological characteristics for multidrug resistances problem” (Saudi Journal of Biological Sciences, 2022)
